# Source: patent US9334269B2, “Carboxamides as inhibitors of voltage-gated sodium channels” (AMGEN INC., priority 2010, dated 2016)
# Target: T1, human Nav1.7 (hNav1.7) (Homo sapiens, UniProt Q15858)
# T1 construct: expressed in transfected cells
# Assay: hNav1.7 whole-cell patch-clamp electrophysiology (automated PatchXpress 7000A or manual) in stably expressing 293 cells
# Assay type: cell-based
# Conditions: average IC50
# Experimental: Compounds were tested on human Nav1.7 (hNav1.7) expressed stably in 293 cells, which have no endogenous sodium channels. Two forms of whole-cell patch-clamp assays were used. In both, peak current through Nav1.7 was evoked by a depolarizing voltage pulse, and currents were monitored as a function of time in response to exposure to several different concentrations of drug. Automated electrophysiology uses the PatchXpress 7000A system. Up to sixteen cells at a time were voltage-clamped in parallel, and the steady-state voltage dependence of inactivation was determined experimentally for each cell. For each cell, fractional inactivation was set at 20%, and peak current through Nav1.7 as a function of time was measured in response to increasing concentrations of test compound. Manual electrophysiology refers to conventional whole-cell patch-clamping (Hamill et al., 1981). After formation of the whole-cell clamp, cells were lifted off the bottom of the dish with the patch pipette and positioned directly in front of an array of glass microperfusion tubes each with internal diameter about 250 microns, with individual compound concentrations flowing from each tube. Current as a function of time in response to increasing drug concentrations was measured with Nav1.7 fully in the resting state (holding voltage set to −140 mV) and on the same cells with the holding voltage set to produce about 20% inactivation. Compounds were not applied for a prespecified time, but for as long as required to achieve a stable level of block. For both forms of electrophysiology, offline analysis was used to correct for rundown of channel current and to determine percent inhibition as a function of drug concentration. IC50 were determined by fitting to the Hill equation.
# T1 sequence (Q15858 whole entry): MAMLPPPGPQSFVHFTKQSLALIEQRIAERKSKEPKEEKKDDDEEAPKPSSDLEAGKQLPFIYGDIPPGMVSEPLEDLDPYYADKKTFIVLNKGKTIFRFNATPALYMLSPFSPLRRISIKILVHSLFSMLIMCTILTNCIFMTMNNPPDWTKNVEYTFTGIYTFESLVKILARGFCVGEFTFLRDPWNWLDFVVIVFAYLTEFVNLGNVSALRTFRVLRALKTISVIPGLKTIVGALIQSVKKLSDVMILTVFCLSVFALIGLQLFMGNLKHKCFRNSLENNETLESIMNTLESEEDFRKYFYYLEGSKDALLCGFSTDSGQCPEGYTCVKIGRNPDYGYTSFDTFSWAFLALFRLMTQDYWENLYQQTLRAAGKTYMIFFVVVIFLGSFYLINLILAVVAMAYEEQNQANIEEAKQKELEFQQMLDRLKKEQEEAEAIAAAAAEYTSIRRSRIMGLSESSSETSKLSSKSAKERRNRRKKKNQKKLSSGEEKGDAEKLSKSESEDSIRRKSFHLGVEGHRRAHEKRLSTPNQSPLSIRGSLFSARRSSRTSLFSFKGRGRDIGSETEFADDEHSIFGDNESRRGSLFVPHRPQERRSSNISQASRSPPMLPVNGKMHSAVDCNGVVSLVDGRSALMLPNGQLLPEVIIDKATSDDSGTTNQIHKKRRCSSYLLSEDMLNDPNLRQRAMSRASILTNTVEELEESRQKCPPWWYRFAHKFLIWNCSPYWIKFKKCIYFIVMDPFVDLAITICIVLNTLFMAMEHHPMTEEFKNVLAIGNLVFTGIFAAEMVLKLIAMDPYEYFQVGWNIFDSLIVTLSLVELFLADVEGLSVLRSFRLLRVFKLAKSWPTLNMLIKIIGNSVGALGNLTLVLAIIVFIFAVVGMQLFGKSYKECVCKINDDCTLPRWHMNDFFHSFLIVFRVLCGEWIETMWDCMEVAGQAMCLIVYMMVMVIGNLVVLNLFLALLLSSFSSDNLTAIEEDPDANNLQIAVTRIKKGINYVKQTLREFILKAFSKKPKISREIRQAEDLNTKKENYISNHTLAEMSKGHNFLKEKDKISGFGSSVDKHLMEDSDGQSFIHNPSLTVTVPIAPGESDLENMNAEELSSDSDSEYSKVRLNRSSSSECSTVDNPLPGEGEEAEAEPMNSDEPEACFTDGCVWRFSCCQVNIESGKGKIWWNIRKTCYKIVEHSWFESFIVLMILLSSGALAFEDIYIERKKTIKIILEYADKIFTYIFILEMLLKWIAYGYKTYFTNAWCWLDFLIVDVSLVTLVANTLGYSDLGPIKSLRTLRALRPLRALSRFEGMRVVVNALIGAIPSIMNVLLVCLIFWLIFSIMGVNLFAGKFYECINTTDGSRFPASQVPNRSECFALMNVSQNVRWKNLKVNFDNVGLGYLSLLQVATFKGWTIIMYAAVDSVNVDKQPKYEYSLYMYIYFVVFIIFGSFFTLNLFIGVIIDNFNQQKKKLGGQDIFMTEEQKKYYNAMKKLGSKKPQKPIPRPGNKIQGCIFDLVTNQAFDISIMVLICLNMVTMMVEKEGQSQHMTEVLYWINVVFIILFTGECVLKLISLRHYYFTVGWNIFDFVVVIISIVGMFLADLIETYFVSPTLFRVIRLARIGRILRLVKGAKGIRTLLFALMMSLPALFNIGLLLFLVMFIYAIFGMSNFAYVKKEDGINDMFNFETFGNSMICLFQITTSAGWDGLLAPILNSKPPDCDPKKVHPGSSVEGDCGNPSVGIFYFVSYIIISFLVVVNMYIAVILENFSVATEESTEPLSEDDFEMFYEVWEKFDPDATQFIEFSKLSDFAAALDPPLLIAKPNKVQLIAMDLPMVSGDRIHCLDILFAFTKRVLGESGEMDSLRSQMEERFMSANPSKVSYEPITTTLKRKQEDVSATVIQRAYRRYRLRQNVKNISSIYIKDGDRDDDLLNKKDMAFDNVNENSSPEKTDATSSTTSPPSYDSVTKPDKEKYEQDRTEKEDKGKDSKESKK
row,IC50 [µM],Structure (SMILES)
1,> 30,CNC(=O)c1cccc(Nc2ncnc(N3CCC(OCC(C)C)CC3)n2)c1 [Example 296]
2,> 30,CNC(=O)c1cccc(Nc2nc(C)nc(N3CC(Oc4ccc(F)cc4)C3)n2)c1 [Example 284]
3,21,CNC(=O)c1cccc(Nc2ncnc(N3CCc4cccc(C(F)(F)F)c4C3)n2)c1 [Example 269]
4,> 30,CNC(=O)c1cccc(Nc2ncnc(NCc3noc(C(=O)NC4CC4)n3)n2)c1 [Example 289]
5,19.7,CNC(=O)c1cc(Nc2ncnc(N3CC(Oc4ccc(F)cc4)C3)n2)ccc1C [Example 266]
6,> 30,CCN1C(=O)C2(CCN(c3ncnc(Nc4cccc(C(=O)NC)c4)n3)CC2)c2ccccc21 [Example 290]
7,26,CNC(=O)c1cccc(Nc2ncnc(N3CCCC(Oc4cccc(Cl)c4)C3)n2)c1 (stereo not drawn) [Example 278]
8,> 30,CNC(=O)c1cc(F)cc(Nc2ncnc(NCCCOc3ccc(OC(F)(F)F)cc3)n2)c1 [Example 282]

# Same assay, conditions: average IC50, human Nav1.7
row,Structure (SMILES),IC50 [µM]
1,CNC(=O)c1cccc(Nc2ncnc(N3CC(Oc4ccc(C#N)cc4)C3)n2)c1 [Example 210],8.24
2,CNC(=O)c1cccc(Nc2ncnc(N3CCC(Oc4ccc(Cl)cc4)CC3)n2)c1 [Example 145],2.9
3,CNC(=O)c1cccc(Nc2ncnc(N3CCC(Oc4cccc(OC(F)(F)F)c4)CC3)n2)c1 [Example 119],2.07
4,CNC(=O)c1cccc(Nc2ncnc(N3CCc4c(F)cccc4C3)n2)c1 [Example 225],9.31
5,CNC(=O)c1cccc(Nc2ncnc(NCCCOc3ccc(Cl)cc3)n2)c1 [Example 152],3.1
6,CNC(=O)c1ccc(Cl)c(Nc2ncnc(N3CC(Oc4ccc(F)cc4)C3)n2)c1 [Example 129],2.37
7,CNC(=O)c1cccc(Nc2ncnc(N3CC(Oc4ccc(C(C)C)cc4)C3)n2)c1 [Example 42],0.57
8,CNC(=O)c1cccc(Nc2ncnc(N3CCN(c4ccc(OC)cc4)CC3)n2)c1 [Example 159],3.5
9,CNC(=O)c1cccc(Nc2nccc(N3CC(Oc4ccc(F)cc4F)C3)n2)c1 [Example 125],2.16
10,CNC(=O)c1cccc(Nc2ncnc(N3CC(Oc4ccc(F)c(F)c4F)C3)n2)c1 [Example 226],9.35
11,CNC(=O)c1cccc(Nc2ncnc(N3CCN(c4cccc(C)n4)CC3)n2)c1 [Example 76],0.97
12,CNC(=O)c1cccc(Nc2ncnc(N3CCC(n4cc(-c5ccc(Cl)cc5)cn4)CC3)n2)c1 [Example 167],4.16
13,CNC(=O)c1cccc(Nc2ncnc(N3CCCN(Cc4ccccc4)CC3)n2)c1 [Example 203],7.42
14,CNC(=O)c1ccc(C)c(Nc2ncnc(N3CC(Oc4ccc(F)cc4)C3)n2)c1 [Example 160],3.65
15,O=C(NC1CC1)c1cccc(Nc2ncnc(N3CC(Oc4ccc(F)cc4)C3)n2)c1 [Example 205],7.42
16,CNC(=O)c1cccc(Nc2ncnc(N3CCc4c(Cl)cccc4C3)n2)c1 [Example 142],2.8
17,CNC(=O)c1cccc(Nc2ncnc(N3CC(Oc4ccccc4C(F)(F)F)C3)n2)c1 [Example 141],2.79
18,CNC(=O)c1cccc(Nc2ncnc(N3CCC(Sc4ccc(C)cc4)CC3)n2)c1 [Example 250],13.1
19,CNC(=O)c1cccc(Nc2ncnc(NCCCOc3cccc(F)c3)n2)c1 [Example 260],17.6
20,CNC(=O)c1cccc(Nc2ncnc(N3CCCN(c4ncc(C(F)(F)F)cc4Cl)CC3)n2)c1 [Example 107],1.61

# Other lines, results leading:
row,IC50 [µM],Structure (SMILES)
1,1.43,CNC(=O)c1cccc(Nc2ncnc(N3CC=C(c4ccc(C#N)cc4)CC3)n2)c1 [Example 99]
2,1.26,CNC(=O)c1cccc(Nc2ncnc(N3CCN(c4ccccc4C)CC3)n2)c1 [Example 89]
3,1.03,CNC(=O)c1cccc(Nc2ncnc(N3CCN(c4cccc(C)c4C)CC3)n2)c1 [Example 81]
4,2.95,CNC(=O)c1cccc(Nc2ncnc(N3CC(Oc4ccc(F)cc4F)C3)n2)c1 [Example 148]
5,16.7,CNC(=O)c1cccc(Nc2ncnc(N3CC(Oc4cccc(C(F)(F)F)c4F)C3)n2)c1 [Example 256]
6,9.36,Cc1ccc(N2CCN(c3ncnc(Nc4ccc(Cl)c(C(N)=O)c4)n3)CC2)cc1C [Example 227]
7,1.57,CNC(=O)c1cccc(Nc2ncnc(N3CC(Oc4cccc(Cl)c4Cl)C3)n2)c1 [Example 104]
8,1,CNC(=O)c1cc(Nc2ncnc(N3CC(Oc4ccc(Cl)cc4F)C3)n2)ccc1Cl [Example 79]
9,0.82,CNC(=O)c1cccc(Nc2ncnc(N3CC(Oc4c(Cl)cccc4Cl)C3)n2)c1 [Example 63]
10,4.62,O=C(NCC(F)(F)F)c1cccc(Nc2ncnc(N3CC(Oc4ccc(F)cc4)C3)n2)c1 [Example 174]
11,0.38,CNC(=O)c1cccc(Nc2ncnc(N3CCC(c4nc(-c5ccccc5)cs4)CC3)n2)c1 [Example 24]
12,9.29,CNC(=O)c1cccc(Nc2ncnc(N3CC(Oc4cc(Cl)cc(Cl)c4)C3)n2)c1 [Example 224]
13,7.03,NC(=O)c1cccc(Nc2ncnc(N3CCC(OCc4ccc(OC(F)(F)F)cc4)CC3)n2)c1 [Example 200]
14,5.6,CNC(=O)c1cccc(Nc2ncnc(N3CC(Oc4ccccc4F)C3)n2)c1 [Example 192]
15,1.2,CNC(=O)c1cccc(Nc2ncnc(N3CC(Oc4cccc(F)c4)C3)n2)c1 [Example 86]
16,10.3,NC(=O)c1cccc(Nc2ncnc(N3CCc4ccccc4C3)n2)c1 [Example 235]
17,4.3,CNC(=O)c1cccc(Nc2ncnc(N3CCC(c4ccc(C#N)cc4)CC3)n2)c1 [Example 170]
18,8.11,CNC(=O)c1cccc(Nc2ncnc(N3CC(COc4ccc(Cl)c(C(F)(F)F)c4)C3)n2)c1 [Example 208]
19,1.3,CNC(=O)c1cccc(Nc2ncnc(N3CCC(COc4ccc(F)c(F)c4)CC3)n2)c1 [Example 93]
20,2.02,CNC(=O)c1cccc(Nc2ncnc(N3CCC(Oc4ccc(C(F)(F)F)cc4)CC3)n2)c1 [Example 118]
21,3.16,CNC(=O)c1cccc(Nc2ncnc(N3CC(Oc4c(F)cc(Cl)cc4F)C3)n2)c1 [Example 153]
22,7.98,CNC(=O)c1cccc(Nc2ncnc(N3CC(Oc4ccc(CC#N)cc4)C3)n2)c1 [Example 207]
23,1.06,CNC(=O)c1cccc(Nc2ncnc(N3CCN(c4ccc(OC(F)(F)F)cc4)CC3)n2)c1 [Example 82]
24,10.8,CNC(=O)c1cccc(Nc2ncnc(N3CCC(Oc4ccccc4F)CC3)n2)c1 [Example 238]
25,15,CNC(=O)c1cccc(Nc2ncnc(N3CCc4c(cccc4OCCOC)C3)n2)c1 [Example 252]

# Same assay, conditions: human Nav1.7 stably expressed in 293 cells; whole-cell patch clamp; average IC50 from Hill fit
row,Structure (SMILES),IC50 [µM]
1,"CNC(=O)c1cccc(Nc2nc(C)nc(N3CC(Oc4ccc(Cl)cc4F)C3)n2)c1 [Example U, 3-(4-(3-(4-chloro-2-fluorophenoxy)azetidin-1-yl)-6-methyl-1,3,5-triazin-2-ylamino)-N-methylbenzamide]",> 30
2,"CNC(=O)c1cccc(Nc2ccnc(N3CC(Oc4ccc(Cl)cc4F)C3)c2)c1 [Example AA, 3-((2-(3-(4-chloro-2-fluorophenoxy)-1-azetidinyl)-4-pyridinyl)amino)-N-methylbenzamide]",7.15
3,"CNC(=O)c1cccc(Nc2nccc(N3CC(Oc4ccc(OC)cc4)C3)n2)c1 [Example D, 3-((4-(3-(4-methoxyphenoxy)-1-azetidinyl)-2-pyrimidinyl)amino)-N-methylbenzamide]",0.43
4,"CNC(=O)c1cccc(Nc2nccc(N3CC(Oc4ccc(F)cc4C)C3)n2)c1 [Example J, 3-((4-(3-(4-fluoro-2-methylphenoxy)-1-azetidinyl)-2-pyrimidinyl)amino)-N-methylbenzamide]",0.08
5,"CNC(=O)c1cccc(Nc2nccc(N3CC(Oc4ccc(F)cc4F)C3)n2)c1 [Example H, 3-((4-(3-(2,4-difluorophenoxy)-1-azetidinyl)-2-pyrimidinyl)amino)-N-methylbenzamide]",2.16
6,"CNC(=O)c1cccc(Nc2nccc(N3CC(Oc4ccc(F)c(F)c4)C3)n2)c1 [Example E, 3-((4-(3-(3,4-difluorophenoxy)-1-azetidinyl)-2-pyrimidinyl)amino)-N-methylbenzamide]",1.6

# Results, then the compound that gave them:
row,IC50 [µM],Structure (SMILES)
1,1.17,"CNC(=O)c1cccc(Nc2ccnc(NCCCOc3ccc(OC(F)(F)F)cc3)n2)c1 [Example AC, N-methyl-3-((2-((3-(4-(trifluoromethoxy)phenoxy)propyl)amino)-4-pyrimidinyl)amino)benzamide]"
2,> 30,"CNC(=O)c1cccc(Oc2ncnc(N3CC(Oc4ccc(Cl)cc4F)C3)n2)c1 [Example AE, 3-((4-(3-(4-chloro-2-fluorophenoxy)-1-azetidinyl)-1,3,5-triazin-2-yl)oxy)-N-methylbenzamide]"
3,2.3,"CNC(=O)c1cccc(Nc2nccc(N3CC(Oc4ccc(Cl)cc4F)C3)n2)c1 [Example M, 3-((4-(3-(4-chloro-2-fluorophenoxy)-1-azetidinyl)-2-pyrimidinyl)amino)-N-methylbenzamide]"
4,> 30,"CNC(=O)c1cccc(Nc2ncnc(N3CC(Oc4ccc(Cl)cc4F)C3)c2F)c1 [Example AB, 3-((6-(3-(4-chloro-2-fluorophenoxy)-1-azetidinyl)-5-fluoro-4-pyrimidinyl)-amino)-N-methylbenzamide]"
